Data taken from PubChem BioAssay (NCI).
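A five-concentration, 48-hour dose response in 96-well plates underlies each endpoint, interpolated linearly between surrounding concentrations. At the GI50, growth is halved. TGI is the concentration that stops growth completely.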

Columns and labels:
Experiment in all cases: growth of human tumour cells (NCI), 48 h
NCI-H23 lung = test system: NCI-H23 lung
UACC-257 melanoma = test system: UACC-257 melanoma
HT29 colon = test system: HT29 colon
TK-10 renal = test system: TK-10 renal
HOP-92 NSCLC = test system: HOP-92 NSCLC
UO-31 renal = test system: UO-31 renal
NCI-H522 lung = test system: NCI-H522 lung
UACC-62 melanoma = test system: UACC-62 melanoma
SW-620 colon = test system: SW-620 colon
786-0 renal = test system: 786-0 renal
A498 renal = test system: A498 renal
MDA-MB-231 breast = test system: MDA-MB-231 breast
T-47D breast = test system: T-47D breast
HOP-62 NSCLC = test system: HOP-62 NSCLC
BT-549 breast = test system: BT-549 breast
SNB-75 CNS = test system: SNB-75 CNS
MOLT-4 leukemia = test system: MOLT-4 leukemia
SK-MEL-5 melanoma = test system: SK-MEL-5 melanoma
CCRF-CEM leukemia = test system: CCRF-CEM leukemia
U251 CNS = test system: U251 CNS
IGROV1 ovarian = test system: IGROV1 ovarian
SF-268 CNS = test system: SF-268 CNS
NCI/ADR-RES ovarian = test system: NCI/ADR-RES ovarian
CAKI-1 renal = test system: CAKI-1 renal
M14 melanoma = test system: M14 melanoma
OVCAR-4 ovarian = test system: OVCAR-4 ovarian
RPMI-8226 leukemia = test system: RPMI-8226 leukemia
ACHN renal = test system: ACHN renal
HCC-2998 colon = test system: HCC-2998 colon
SK-MEL-28 melanoma = test system: SK-MEL-28 melanoma
SR leukemia = test system: SR leukemia
HL-60(TB) leukemia = test system: HL-60(TB) leukemia
HCT-15 colon = test system: HCT-15 colon
SNB-19 CNS = test system: SNB-19 CNS
MCF7 breast = test system: MCF7 breast
SK-OV-3 ovarian = test system: SK-OV-3 ovarian
K-562 leukemia = test system: K-562 leukemia
SN12C renal = test system: SN12C renal
SF-539 CNS = test system: SF-539 CNS
MALME-3M melanoma = test system: MALME-3M melanoma
KM12 colon = test system: KM12 colon
OVCAR-3 ovarian = test system: OVCAR-3 ovarian
COLO 205 colon = test system: COLO 205 colon
OVCAR-8 ovarian = test system: OVCAR-8 ovarian
NCI-H460 lung = test system: NCI-H460 lung
SK-MEL-2 melanoma = test system: SK-MEL-2 melanoma
HS 578T breast = test system: HS 578T breast
PC-3 prostate = test system: PC-3 prostate
SF-295 CNS = test system: SF-295 CNS
LOX IMVI melanoma = test system: LOX IMVI melanoma
A549 NSCLC = test system: A549 NSCLC
HCT-116 colon = test system: HCT-116 colon
NCI-H226 lung = test system: NCI-H226 lung
OVCAR-5 ovarian = test system: OVCAR-5 ovarian
EKVX NSCLC = test system: EKVX NSCLC

SMILES: COC(=O)[C@]12CC[C@@H](C)[C@H](C)[C@@H]1C1=CC[C@@H]3[C@@]4(C)C(C=O)=C[C@@](C)(COC(=O)c5ccco5)[C@@H]4[C@H](O)C[C@@]3(C)[C@]1(C)CC2
- GI50 (NCI-H23 lung): 2.24 µM
- TGI (NCI-H23 lung): 7.01 µM
- GI50 (UACC-257 melanoma): 0.263 µM
- TGI (UACC-257 melanoma): 0.997 µM
- GI50 (HT29 colon): 1.81 µM
- TGI (HT29 colon): 4.14 µM
- GI50 (TK-10 renal): 2.04 µM
- TGI (TK-10 renal): 9.32 µM
- GI50 (HOP-92 NSCLC): 1.56 µM
- TGI (HOP-92 NSCLC): 4.27 µM
- GI50 (UO-31 renal): 1.66 µM
- TGI (UO-31 renal): 3.48 µM
- GI50 (NCI-H522 lung): 1.64 µM
- TGI (NCI-H522 lung): 3.94 µM
- GI50 (UACC-62 melanoma): 0.382 µM
- TGI (UACC-62 melanoma): 2.22 µM
- GI50 (SW-620 colon): 2.86 µM
- TGI (SW-620 colon): 8.32 µM
- GI50 (786-0 renal): 2.4 µM
- TGI (786-0 renal): 7.13 µM
- GI50 (A498 renal): 3.19 µM
- TGI (A498 renal): 12.7 µM
- GI50 (MDA-MB-231 breast): 2.49 µM
- TGI (MDA-MB-231 breast): 5.83 µM
- GI50 (T-47D breast): 2.37 µM
- TGI (T-47D breast): 39.5 µM
- GI50 (HOP-62 NSCLC): 2.16 µM
- TGI (HOP-62 NSCLC): 6.07 µM
- GI50 (BT-549 breast): 2.07 µM
- TGI (BT-549 breast): 6.65 µM
- GI50 (SNB-75 CNS): 1.49 µM
- TGI (SNB-75 CNS): 4.12 µM
- GI50 (MOLT-4 leukemia): 2.29 µM
- TGI (MOLT-4 leukemia): 7.5 µM
- GI50 (SK-MEL-5 melanoma): 0.453 µM
- TGI (SK-MEL-5 melanoma): 1.65 µM
- GI50 (CCRF-CEM leukemia): 2.54 µM
- TGI (CCRF-CEM leukemia): 7.58 µM
- GI50 (U251 CNS): 1.41 µM
- TGI (U251 CNS): 2.91 µM
- GI50 (IGROV1 ovarian): 3.03 µM
- TGI (IGROV1 ovarian): > 100 µM
- GI50 (SF-268 CNS): 2.66 µM
- TGI (SF-268 CNS): 12.6 µM
- GI50 (NCI/ADR-RES ovarian): 2.76 µM
- TGI (NCI/ADR-RES ovarian): 12 µM
- GI50 (CAKI-1 renal): 2.86 µM
- TGI (CAKI-1 renal): > 100 µM
- GI50 (M14 melanoma): 0.305 µM
- TGI (M14 melanoma): 2.6 µM
- GI50 (OVCAR-4 ovarian): 2.38 µM
- TGI (OVCAR-4 ovarian): 28.2 µM
- GI50 (RPMI-8226 leukemia): 1.76 µM
- TGI (RPMI-8226 leukemia): 6.7 µM
- GI50 (ACHN renal): 1.13 µM
- TGI (ACHN renal): 3.78 µM
- GI50 (HCC-2998 colon): 1.92 µM
- TGI (HCC-2998 colon): 3.71 µM
- GI50 (SK-MEL-28 melanoma): 0.0918 µM
- TGI (SK-MEL-28 melanoma): 2.64 µM
- GI50 (SR leukemia): 1.8 µM
- TGI (SR leukemia): 5.13 µM
- GI50 (HL-60(TB) leukemia): 2.33 µM
- TGI (HL-60(TB) leukemia): 5.84 µM
- GI50 (HCT-15 colon): 1.51 µM
- TGI (HCT-15 colon): 3.09 µM
- GI50 (SNB-19 CNS): 4.32 µM
- TGI (SNB-19 CNS): 30.8 µM
- GI50 (MCF7 breast): 2.31 µM
- TGI (MCF7 breast): 9.86 µM
- GI50 (SK-OV-3 ovarian): 3.64 µM
- TGI (SK-OV-3 ovarian): 18.3 µM
- GI50 (K-562 leukemia): 2.96 µM
- TGI (K-562 leukemia): 9.96 µM
- GI50 (SN12C renal): 3.44 µM
- TGI (SN12C renal): 83.2 µM
- GI50 (SF-539 CNS): 1.89 µM
- TGI (SF-539 CNS): 3.93 µM
- GI50 (MALME-3M melanoma): 0.224 µM
- TGI (MALME-3M melanoma): 1.17 µM
- GI50 (KM12 colon): 1.83 µM
- TGI (KM12 colon): 4.5 µM
- GI50 (OVCAR-3 ovarian): 1.87 µM
- TGI (OVCAR-3 ovarian): 3.73 µM
- GI50 (COLO 205 colon): 0.0493 µM
- TGI (COLO 205 colon): 0.355 µM
- GI50 (OVCAR-8 ovarian): 2.9 µM
- TGI (OVCAR-8 ovarian): 13.4 µM
- GI50 (NCI-H460 lung): 2.51 µM
- TGI (NCI-H460 lung): 6.3 µM
- GI50 (SK-MEL-2 melanoma): 0.423 µM
- TGI (SK-MEL-2 melanoma): 1.9 µM
- GI50 (HS 578T breast): 2.72 µM
- TGI (HS 578T breast): 8.96 µM
- GI50 (PC-3 prostate): 1.29 µM
- TGI (PC-3 prostate): 7.55 µM
- GI50 (SF-295 CNS): 1.95 µM
- TGI (SF-295 CNS): 4.69 µM
- GI50 (LOX IMVI melanoma): 1.57 µM
- TGI (LOX IMVI melanoma): 2.94 µM
- GI50 (A549 NSCLC): 3.51 µM
- TGI (A549 NSCLC): 16.2 µM
- GI50 (HCT-116 colon): 1.19 µM
- TGI (HCT-116 colon): 2.59 µM
- GI50 (NCI-H226 lung): 1.94 µM
- TGI (NCI-H226 lung): 4.14 µM
- GI50 (OVCAR-5 ovarian): 3 µM
- TGI (OVCAR-5 ovarian): 9.72 µM
- GI50 (EKVX NSCLC): 3.02 µM
- TGI (EKVX NSCLC): 13.8 µM
